The values below come from US20250092032A1, “DEOXYCYTIDINE KINASE INHIBITORS” (CENTRE NATIONAL DE LA RECHERCHE SCIENTIFIQUE, priority 2022, published 2025).

As a reminder, the IC50 is the concentration that gives 50% inhibition.

In one experiment the target is T1, dCK (Homo sapiens, UniProt P27707, C45S/C59S/C9S/S74E).
T1 construct: inferred from HisTrap purification with imidazole elution; made in house; host or cells: Escherichia coli BL21 pRIL
Put plainly: Affinity assay: Thermal Shift Assay (TSA), dCK thermal stabilization. The format is binding. The note with it: dCK protein (C9S, C45S, C59S, S74E); 5 sM of protein, 50 sM of compound, 2% DMSO; mean ± SD. Here is the method:
dCK protein contained three solvent exposed cysteines mutated to serines in order to generate better quality crystals (C9S, C45S, C59S) and a serine mutated to glutamic acid (S74E). The S74E mutation mimics the phosphorylated state of this serine, which favors the open conformation of the enzyme, making it competent for nucleoside binding to evaluate the binding affinity with compounds. BL21 pRIL Escherichia Coli cells were transformed with dCK-plasmid. Cells were grown in LB media containing 100 μg/ml ampicillin and 34 μg/ml chloramphenicol at 18° C. for 20 h after induction with 1 mM IPTG. Cells were re-suspended in 50 mM TRIS, pH 8, 500 mM NaCl, 30 mM imidazole and 10% glycerol buffer containing one EDTA free anti-protease tablet (Roche). After sonication and centrifugation (30,000×g), the supernatant was loaded on a 5 ml HisTrap FF column (GE healthcare) pre-equilibrated with resuspension buffer. Protein was then eluted by re-suspension buffer containing 500 mM imidazole. Protein eluted fractions were mixed and concentrated. Protein was further purified by size exclusion chromatography (superdex 200 16/600, GE healthcare) in 20 mM HEPES, pH 7.5, and 200 mM NaCl before concentration to 30 mg/ml and storage at −80° C.
Thermal Shift Assay (TSA) experiments were performed in triplicate in 384-well PCR white plates (Thermo Scientific, AB-3384) in the assay buffer containing 20 mM HEPES, pH 7.5 and 200 mM NaCl. Final concentrations were adjusted to 5 sM of protein, 50 sM of compound (final 2% DMSO) and dye diluted to 1:1000, as recommended by manufacturer (Protein Thermal Shift Dye, ThermoFisher Scientific). […] Plates were centrifuged at 1000 rpm for 2 min at 4° C. Thermal melting experiments were carried using a CFX-384 Connect RT-PCR (Bio-Rad). Plates were first equilibrated at 25° C.; then, the plates were heated from 25 to 95° C. by 0.5° C./min steps. Raw fluorescence data were treated, and the melting temperatures (Tm) were calculated using CFX Manager 3.1 software (Bio-Rad). ΔTm represents the difference in Tm between the protein in the presence of compound and the protein alone (both at 2% DMSO). Each experiment was performed at least twice (with technical triplicates) and data are presented as the mean f SD in Table 1.

The subject of experiment [1] is CCRF-CEM cell line (T-cell acute lymphoblastic leukemia). Put plainly: Cellular assay: inhibition of CCRF-CEM cell proliferation in presence of dT and dC (CellTiter-Blue). Type of experiment: cell-based. Conditions: Homo sapiens, read-out: CELLULAR ASSAY IC50 (nM), 200 μM dT and 1 μM dC, 72 hours, mean ± SD. Here is the method:
The cellular assay was set up to assess the ability to inhibit dCK activity in a cellular model. The model was developed with a T-cell acute lymphoblastic leukemia cell line (CCRF-CEM), because of its high dependence on the salvage pathway, thus on dCK activity. Cellular assays were performed to assess the inhibition of cell proliferation under two conditions: i) in the presence of the molecule alone to determine the non-specific effect on cells, independent of dCK (non-specific toxicity) and ii) in the presence of an inhibitor of the De Novo pathway to determine the ability of molecules to inhibit dCK and decrease tumor proliferation (activity on dCK). The inhibitor of the De Novo pathway chosen for the experiments was thymidine (dT), a physiological inhibitor of ribonucleotide reductase which arrests cell proliferation in phase S. The dTTP produced via thymidine kinase from dT acts as a RNR inhibitor by an allosteric regulation of the R1 subunit (FIG. 1). The addition of the nucleoside deoxycytidine (dC) in the medium allows the rescue of cell proliferation by passing only through the salvage pathway, mediated by dCK. Therefore, cell proliferation under these conditions (+dT+dC) is dCK dependent and it is possible to determine the IC50 of dCK inhibitors on the inhibition of cell proliferation. Results are expressed as % cell proliferation relative to the control with DMSO in Table 1.
CCFR-CEM cells were grown at 37° C. in RPMI 1640 with L-glutamine, supplemented with 100 units/ml penicillin, […] streptomycin, and 10% heat-inactivated foetal calf serum. The experiments were carried out on 96-well plates under the following conditions: 14,000 cells per well, RPMI 1640 culture medium supplemented with 10% heat-inactivated foetal calf serum, 200 sM of dT, 1 sM of dC and a range of dilutions of each molecule ranging from 40 μM to 10 μM, depending on the activity of the molecules (final 0.2% DMSO). Cells were incubated for 72 hours under these different conditions and finally, incubated with 10 μl/well of CellTiter-Blue reagent (Promega) for 4 hours at 37° C. The amount of reduced dye formed by metabolically active cells was quantified by its fluorescence measured at 560 nm (excitation) and 590 nm (emission) in a microplate reader (CLARIOstar, BMG Labtech). A blank well without cells was used as a background control. Each experiment was performed at least three times (with technical triplicates) and data are presented as the mean f SD.
On the technique in general: Resazurin is reduced to fluorescent resorufin, in cell work by metabolically active cells.

The next experiment has as its system CCRF-CEM T-ALL cell line. Put plainly: In vivo systemic leukemia model: NSG mice inoculated intravenously with luciferase-expressing CCRF-CEM cells.

T1 sequence (P27707 whole entry C9S/C45S/C59S/S74E): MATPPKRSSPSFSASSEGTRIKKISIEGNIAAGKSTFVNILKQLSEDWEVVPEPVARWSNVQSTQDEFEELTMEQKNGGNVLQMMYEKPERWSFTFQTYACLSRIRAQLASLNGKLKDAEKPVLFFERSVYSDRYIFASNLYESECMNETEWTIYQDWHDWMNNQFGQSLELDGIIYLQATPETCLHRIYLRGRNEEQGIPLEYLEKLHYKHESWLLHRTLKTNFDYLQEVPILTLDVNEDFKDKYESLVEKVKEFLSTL
Procedure for CCRF-CEM T-ALL cell line: Healthy 6 to 9 weeks-old male mice received 0.1×10^6 luciferase transduced-CCRF-CEM cells in the tail vein on Day 0 and were randomly assigned in four groups to receive intraperitoneal injections from Day 3 (Vehicle (n=8), dT (n=8), OR0642 (n=9) and dT+OR0642 (n=9)). […] Doses administered were: dT at 1.5 g/Kg, OR0642 at 40 mg/Kg and dT+OR0642 at 1.5 g/Kg and 40 mg/Kg, respectively. Vehicle was saline solution (0.9% NaCl) supplemented with 10% Kolliphor EL. OR0642 was administered in its hydrochloride salt form. Drug administration protocol is detailed in FIG. 4. Bioluminescence analysis was performed once/week using PhotonIMAGER Optima (Biospace Lab) following addition of endotoxin-free luciferin (30 mg/kg, Promega). Peripheral blood was obtained at Day 21 to determine the fraction of human blasts using flow cytometry. […] Analyses were performed on a Life Science Research Fortessa flow cytometer with DIVA software (BD Biosciences). The number of ALL cells/L peripheral blood was determined by using CountBright beads (Invitrogen, C36950) using described protocol. Daily monitoring of mice for symptoms of disease (ruffled coat, hunched back, weakness and reduced motility) determined the time of killing for injected animals with signs of distress. Kaplan-Meier curves, bioluminescence quantifications and statistical analyses were generated using Prism (Graphpad Software). Bioluminescence data were presented as the mean f SEM. Comparison of bioluminescence data at Day 21 was performed using One way ANOVA Kruskal-Wallis Test and Dunn's Multiple Comparison Test. Comparison of hCD45 populations was performed using One way ANOVA Kruskal-Wallis Test and Dunn's Multiple Comparison Test. Median survival times were compared using Log-Rank (Mantel-Cox) Test.

Take `CCCN(c1nc(-c2nc(N)cc(N)n2)cs1)c1cc(-c2ccc(S(=O)(=O)N3CCN(C)CC3)nc2)ccc1C` [OR0627, 2-(2-((2-Methyl-5-(6-((4-methylpiperazin-1-yl)sulfonyl)pyridin-3-yl)phenyl)(propyl)amino)thiazol-4-yl)pyrimidine-4,6-diamine]: the “AFFINITY ASSAY +ΔTm (°)” value at dCK worked out at 17.5 ± 0.4 °. The IC50 in experiment [1] was 48 ± 17 nM.
For `CCCN(c1nc(-c2nc(N)cc(N)n2)cs1)c1cc(-c2ccc(S(=O)(=O)N3CCN(C)CC3)cc2C(F)(F)F)ccc1C` [OR0642, 2-(2-((4-Methyl-4′-((4-methylpiperazin-1-yl)sulfonyl)-2′-(trifluoromethyl)-[1,1′-biphenyl]-3-yl)(propyl)amino)thiazol-4-yl)pyrimidine-4,6-diamine], the “effect on disease progression / disease burden (bioluminescence)” value in the experiment on CCRF-CEM T-ALL cell line (CCRF-CEM leukemia bearing NSG mice, dT 1.5 g/Kg, OR0642 40 mg/Kg (hydrochloride salt) i.p., FIG. 5) is given as “did not show any anti-proliferative effect”. In addition, the “day around which most of the mice died” value with CCRF-CEM T-ALL cell line (the two components administered separately, FIG. 8) was roughly 26 days.
For the compound `CCCN(c1nc(-c2nc(N)cc(N)n2)cs1)c1cc(-c2ccc(S(=O)(=O)N3CCN(CC(=O)O)CC3)cc2)ccc1C` [OR0649, 2-(4-((3′-((4-(4,6-Diaminopyrimidin-2-yl)thiazol-2-yl)(propyl)amino)-4′-methyl-[1,1′-biphenyl]-4-yl)sulfonyl)piperazin-1-yl)acetic acid], the “AFFINITY ASSAY +ΔTm (°)” value at dCK stood at 17.6 ± 1.3 °. Moreover, the half-inhibitory concentration (IC50) in experiment [1] worked out at 13400 ± 546 nM.
`CCCN(c1nc(-c2nc(N)cc(N)n2)cs1)c1cc(Br)ccc1C` [OR0652-1, 2-(2-((5-Bromo-2-methylphenyl)(propyl)amino)thiazol-4-yl)pyrimidine-4,6-diamine]: the “AFFINITY ASSAY +ΔTm (°)” value on dCK is 13.9 ± 0.2 °. In addition, the half-maximal inhibitory concentration (IC50) in experiment [1] worked out at 11300 ± 1370 nM.
In the case of `CCCN(c1nc(-c2nc(N)cc(N)n2)cs1)c1cc(-c2cnc(O)cc2C(F)(F)F)ccc1C` [OR0655, 2-(2-((5-(6-Hydroxy-4-(trifluoromethyl)pyridin-3-yl)-2-methylphenyl)(propyl)amino)thiazol-4-yl)pyrimidine-4,6-diamine], the “AFFINITY ASSAY +ΔTm (°)” value at dCK amounted to 19.0 ± 0.0 °. Moreover, the IC50 in experiment [1] amounted to 251 ± 36 nM.
In the case of `CCCN(c1nc(-c2nc(N)cc(N)n2)cs1)c1cc(-c2ccc(S(=O)(=O)N3CCN(C)CC3)cc2)ccc1C` [OR0607, 2-(2-((4-Methyl-4′-((4-methylpiperazin-1-yl)sulfonyl)-[1,1′-biphenyl]-3-yl)(propyl)amino)thiazol-4-yl)pyrimidine-4,6-diamine], the “AFFINITY ASSAY +ΔTm (°)” value at dCK worked out at 19.2 ± 0.6 °. Also, the 50% inhibitory concentration (IC50) in experiment [1] was determined as 31 ± 27 nM.
For `CCCN(c1nc(-c2nccc(N)n2)cs1)c1cc(-c2ccc(OCC(=O)N3CCN(C)CC3)cc2)ccc1C` [OR0597, 4-(4-Aminopyrimidin-2-yl)-N-(4-methyl-4′-(2-(4-methylpiperazin-1-yl)-2-oxoethoxy)-[1,1′-biphenyl]-3-yl)-N-propylthiazol-2-amine], the “AFFINITY ASSAY +ΔTm (°)” value at dCK stood at 17.1 ± 0.1 °.
Consider `CCCN(c1nc(-c2nc(N)cc(N)n2)cs1)c1cc(-c2ccc(OCC(=O)N3CCN(C)CC3)nc2)ccc1C` [OR0630, 2-((5-(3-((4-(4,6-Diaminopyrimidin-2-yl)thiazol-2-yl)(propyl)amino)-4-methylphenyl)pyridin-2-yl)oxy)-1-(4-methylpiperazin-1-yl)ethan-1-one], for which the “AFFINITY ASSAY +ΔTm (°)” value at dCK is given as 17.4 ± 0.2 °.
Take `CCCN(c1nc(-c2nc(N)cc(N)n2)cs1)c1cc(-c2cnc(OC)cc2C(F)(F)F)ccc1C` [OR0654, 2-(2-((5-(6-Methoxy-4-(trifluoromethyl)pyridin-3-yl)-2-methylphenyl)(propyl)amino)thiazol-4-yl)pyrimidine-4,6-diamine]: on dCK, the “AFFINITY ASSAY +ΔTm (°)” value came out at 18.3 ± 0.4 °. Further, the IC50 in experiment [1] came to 610 ± 153 nM.
On to `Cc1ccc(Br)cc1N(CC(C)C)c1nc(-c2nc(N)cc(N)n2)cs1` [OR0637-1, 2-(2-((5-Bromo-2-methylphenyl)(isobutyl)amino)thiazol-4-yl)pyrimidine-4,6-diamine], for which the “AFFINITY ASSAY +ΔTm (°)” value at dCK is listed as 14.9 ± 0.2 °. Besides, the IC50 in experiment [1] came to 8310 ± 1870 nM.
Take `CCCN(c1nc(-c2nc(N)cc(N)n2)cs1)c1cc(-c2cnc(S(=O)(=O)N3CCN(C)CC3)cc2C(F)(F)F)ccc1C` [OR0656, 2-(2-((2-Methyl-5-(6-((4-methylpiperazin-1-yl)sulfonyl)-4-(trifluoromethyl)pyridin-3-yl)phenyl)(propyl)amino)thiazol-4-yl)pyrimidine-4,6-diamine]: on dCK, the “AFFINITY ASSAY +ΔTm (°)” value is given as 21.3 ± 0.8 °. Besides, the IC50 in experiment [1] is 3.8 ± 2 nM.
For `CCCN(c1nc(-c2nc(N)cc(N)n2)cs1)c1cc(-c2ccc(S(=O)(=O)N3CCN(C)CC3)nc2C(F)(F)F)ccc1C` [OR0657, 2-(2-((2-Methyl-5-(6-((4-methylpiperazin-1-yl)sulfonyl)-2-(trifluoromethyl)pyridin-3-yl)phenyl)(propyl)amino)thiazol-4-yl)pyrimidine-4,6-diamine], the “AFFINITY ASSAY +ΔTm (°)” value on dCK came to 22.0 ± 0.4 °. For the same compound, in experiment [1], the IC50 stood at 1.6 ± 0.9 nM.
Regarding `CCCN(c1nc(-c2nc(N)cc(N)n2)cs1)c1cc(-c2cnc(S(=O)(=O)N3CCN(C)CC3)cc2C)ccc1C` [OR0652, 2-(2-((2-Methyl-5-(4-methyl-6-((4-methylpiperazin-1-yl)sulfonyl)pyridin-3-yl)phenyl)(propyl)amino)thiazol-4-yl)pyrimidine-4,6-diamine], the “AFFINITY ASSAY +ΔTm (°)” value on dCK amounted to 19.2 ± 0.1 °. Further, the IC50 in experiment [1] came to 7.3 ± 2.5 nM.
As for `CCCN(c1nc(-c2nc(N)cc(N)n2)cs1)c1cc(-c2ccc(S(=O)(=O)N3CCNCC3)nc2C(F)(F)F)ccc1C` [OR0658, 2-(2-((2-Methyl-5-(6-(piperazin-1-ylsulfonyl)-2-(trifluoromethyl)pyridin-3-yl)phenyl)(propyl)amino)thiazol-4-yl)pyrimidine-4,6-diamine], the “AFFINITY ASSAY +ΔTm (°)” value at dCK turned out to be 22.4 ± 0.1 °. The IC50 in experiment [1] is 11.3 ± 2.1 nM.
For the compound `CCCN(c1nc(-c2nc(N)cc(N)n2)cs1)c1cc(-c2ccc(S(=O)(=O)N3CCN(C)CC3)nc2C)ccc1C` [OR0653, 2-(2-((2-Methyl-5-(2-methyl-6-((4-methylpiperazin-1-yl)sulfonyl)pyridin-3-yl)phenyl)(propyl)amino)thiazol-4-yl)pyrimidine-4,6-diamine], the “AFFINITY ASSAY +ΔTm (°)” value on dCK came out at 21.6 ± 0.4 °. The IC50 in experiment [1] stood at 2.8 ± 1.3 nM.
As to `Cc1ccc(-n2cc(CNS(C)(=O)=O)nn2)cc1N(CC(C)C)c1nc(-c2nc(N)cc(N)n2)cs1` [OR0609, N-((1-(3-((4-(4,6-Diaminopyrimidin-2-yl)thiazol-2-yl)(isobutyl)amino)-4-methylphenyl)-1H-1,2,3-triazol-4-yl)methyl) methanesulfonamide], the “AFFINITY ASSAY +ΔTm (°)” value on dCK turned out to be 13.5 ± 0.7 °. Further, in experiment [1], the IC50 stood at 3180 ± 611 nM.
